Data reported in US20100168137A1, “COMBINATION FOR USE IN THE TREATMENT OF INFLAMMATORY DISORDERS” (priority 2006, published 2010).

Tests used:
MonoMac-6 (MM6) cells = test: MonoMac-6 macrophage proliferation (WST-1 reagent); assay type: cell-based, human; details: 48 hours; for inhibitory effect on MM6 proliferation at 10 μM (in words): WST-1, n=5, data not shown; for inhibition at 100 µM: Homo sapiens, MONO-MAC-6, 100 μM final concentration of each drug, WST-1, mean value n=5, versus untreated cells
Protocol: Cells from the human macrophage cell-line MonoMac-6 (MM6) (Ziegler-Heitbrock et al, Int. J. Cancer, 41, 456 (1988)) were cultured (37° C./5% CO2) in RPMI-1640 medium supplemented with 1 mM sodium pyruvate, 1×nonessential amino acids, 1-100 μg/mL insulin, 1 mM oxalacetic acid, 100 units/mL penicillin, 100 μg/mL streptomycin and 10% (v/v) fetal bovine serum. At the start of the experiment, MM6 cells were seeded in 96-well plates at a density of 1×10^5 cells/mL (100 μl per well). Proliferation of the MM6 cells was measured using the Cell Proliferation Reagent WST-1 (Roche Diagnostics Scandinavia AB, Bromma, Sweden) or by cell counting using a microscope. The WST-1 reagent is designed to be used for spectrophotometric quantification of e.g. cell growth in proliferation assays and was used according to the manufacturers' instructions. […] Stock solutions of pemirolast (potassium salt purchased from American Custom Chemicals Corporation, San Diego, USA) and ramatroban (purchased from Cayman Chemical, Ann Arbor, Mich., USA as free acid and transferred into sodium salt by adding one equivalent of aqueous NaOH) were made in sterile saline.
The effects of pemirolast and/or ramatroban (added at the start of the experiments) on MM6 cell proliferation were studied 48 hours after start of the experiments using the WST-1 reagent described above.

[1] = system: Macrophage inflammatory protein-2 (MIP-2), also designated chemokine (C-X-C motif) ligand 2 (CXCL2); test: MIP-2 gene expression (microarray) in balloon-injured rat carotid artery; assay type: in vivo; details: for effect on MIP-2 gene expression (in words): 5 mg/kg of each drug s.c. 60 minutes before injury, 8 hours after injury, versus saline control; for mean MIP-2 signal intensity: male Sprague-Dawley rats, 5 mg/kg of each drug s.c. 60 minutes before carotid balloon injury, tissue taken 8 hours after injury, 3 rats per group, saline control 203
[2] = system: Platelet derived growth factor, alpha (PDGFa); test: PDGFa gene expression (microarray) in balloon-injured rat carotid artery; assay type: in vivo; details: for effect on PDGFa gene expression (in words): 5 mg/kg of each drug s.c. 60 minutes before injury, 8 hours after injury, versus saline control; for mean PDGFa signal intensity: male Sprague-Dawley rats, 5 mg/kg of each drug s.c. 60 minutes before carotid balloon injury, tissue taken 8 hours after injury, 3 rats per group, saline control 528

| Structure (SMILES) | inhibitory effect on MM6 proliferation at 10 μM (in words) (MonoMac-6 (MM6) cells) | inhibition at 100 µM (MonoMac-6 (MM6) cells) | effect on MIP-2 gene expression (in words) [1] | mean MIP-2 signal intensity [1] | effect on PDGFa gene expression (in words) [2] | mean PDGFa signal intensity [2] |
| --- | --- | --- | --- | --- | --- | --- |
| Cc1cccn2c(=O)c(-c3nnn[nH]3)cnc12 [pemirolast] | very similar to that of 100 μM of pemirolast | 9.4% | did not reduce MIP-2 gene expression levels | 710 | did not reduce PDGFa gene expression levels | 800 |
| O=C(O)CCn1c2c(c3ccccc31)C[C@H](NS(=O)(=O)c1ccc(F)cc1)CC2 [ramatroban] | less that that of 100 μM of ramatroban | 16.8% | did not reduce MIP-2 gene expression levels | 326 | did not reduce PDGFa gene expression levels | 566 |
